Source: the NIST ThermoML archive (doi:10.1016/j.fluid.2009.08.017)
± gives the expanded uncertainty stated by the source.

Experiment: activity coefficient (dimensionless); of the first substance listed, at infinite dilution; xn = mol fraction of the nth substance listed
Conditions: 101 kPa, Liquid, Chromatography, x1 = 0

Compound | activity coefficient (298.15 K) | activity coefficient (308.15 K) | activity coefficient (318.15 K) | activity coefficient (328.15 K) | activity coefficient (338.15 K) | activity coefficient (348.15 K) | activity coefficient (358.15 K) | activity coefficient (368.15 K)
CCCCCCCCC [nonane] + CCCCCCOCn1cc[n+](C)c1.O=S(=O)([N-]S(=O)(=O)C(F)(F)F)C(F)(F)F | 17.8 ± 1.2 | 16.6 ± 1.1 | 15.5 ± 1.1 | 14.6 ± 1 | 13.8 ± 0.9 | 13.2 ± 0.9 | 12.4 ± 0.8 | 11.9 ± 0.8
CCc1ccccc1 [ethylbenzene] + CCCCCCOCn1cc[n+](C)c1.O=S(=O)([N-]S(=O)(=O)C(F)(F)F)C(F)(F)F | – | 1.49 ± 0.098 | 1.49 ± 0.098 | 1.49 ± 0.098 | 1.5 ± 0.098 | 1.5 ± 0.099 | 1.5 ± 0.099 | 1.5 ± 0.099
C1CCCCCCC1 [cyclooctane] + CCCCCCOCn1cc[n+](COCCCCCC)c1.O=S(=O)([N-]S(=O)(=O)C(F)(F)F)C(F)(F)F | 3.2 ± 0.22 | 3.06 ± 0.21 | 2.94 ± 0.2 | 2.82 ± 0.19 | 2.72 ± 0.19 | 2.63 ± 0.18 | 2.54 ± 0.17 | 2.47 ± 0.17
CCCCCCCC [octane] + CCCCCCOCn1cc[n+](COCCCCCC)c1.O=S(=O)([N-]S(=O)(=O)C(F)(F)F)C(F)(F)F | 4.8 ± 0.33 | 4.62 ± 0.31 | 4.45 ± 0.3 | 4.3 ± 0.29 | 4.16 ± 0.28 | 4.03 ± 0.27 | 3.92 ± 0.27 | 3.81 ± 0.26
Cc1ccccc1 [toluene] + CCCCCCOCn1cc[n+](C)c1.O=S(=O)([N-]S(=O)(=O)C(F)(F)F)C(F)(F)F | 1.05 ± 0.066 | 1.06 ± 0.067 | 1.07 ± 0.068 | 1.08 ± 0.068 | 1.09 ± 0.069 | 1.1 ± 0.069 | 1.1 ± 0.07 | 1.11 ± 0.07
C#CCCCCCC [1-octyne] + CCCCCCOCn1cc[n+](COCCCCCC)c1.O=S(=O)([N-]S(=O)(=O)C(F)(F)F)C(F)(F)F | 1.65 ± 0.11 | 1.66 ± 0.11 | 1.66 ± 0.11 | 1.66 ± 0.11 | 1.67 ± 0.11 | 1.67 ± 0.11 | 1.67 ± 0.11 | 1.67 ± 0.11
C#CCCCCCC [1-octyne] + CCCCCCOCn1cc[n+](C)c1.O=S(=O)([N-]S(=O)(=O)C(F)(F)F)C(F)(F)F | 3.15 ± 0.21 | 3.14 ± 0.21 | 3.13 ± 0.21 | 3.13 ± 0.21 | 3.12 ± 0.21 | 3.11 ± 0.21 | 3.11 ± 0.21 | 3.1 ± 0.21
CCCCC [pentane] + CCCCCCOCn1cc[n+](C)c1.O=S(=O)([N-]S(=O)(=O)C(F)(F)F)C(F)(F)F | 7.34 ± 0.5 | 6.93 ± 0.47 | 6.54 ± 0.45 | 6.25 ± 0.43 | 5.92 ± 0.4 | 5.68 ± 0.39 | 5.43 ± 0.37 | 5.21 ± 0.36
C=CCCC [1-pentene] + CCCCCCOCn1cc[n+](COCCCCCC)c1.O=S(=O)([N-]S(=O)(=O)C(F)(F)F)C(F)(F)F | 1.9 ± 0.13 | 1.87 ± 0.13 | 1.83 ± 0.12 | 1.8 ± 0.12 | 1.77 ± 0.12 | 1.75 ± 0.12 | 1.72 ± 0.12 | 1.7 ± 0.11
C#CCCCC [1-hexyne] + CCCCCCOCn1cc[n+](C)c1.O=S(=O)([N-]S(=O)(=O)C(F)(F)F)C(F)(F)F | 1.93 ± 0.13 | 1.94 ± 0.13 | 1.95 ± 0.13 | 1.96 ± 0.13 | 1.97 ± 0.13 | 1.98 ± 0.13 | 1.98 ± 0.13 | 1.99 ± 0.14
Cc1ccc(C)cc1 [1,4-dimethylbenzene] + CCCCCCOCn1cc[n+](C)c1.O=S(=O)([N-]S(=O)(=O)C(F)(F)F)C(F)(F)F | – | – | 1.46 ± 0.096 | 1.47 ± 0.097 | 1.48 ± 0.097 | 1.49 ± 0.098 | 1.5 ± 0.098 | 1.5 ± 0.099
Cc1cccc(C)c1 [1,3-dimethylbenzene] + CCCCCCOCn1cc[n+](C)c1.O=S(=O)([N-]S(=O)(=O)C(F)(F)F)C(F)(F)F | – | – | 1.45 ± 0.095 | 1.46 ± 0.096 | 1.47 ± 0.096 | 1.48 ± 0.097 | 1.48 ± 0.098 | 1.49 ± 0.098
CCOCC [diethyl ether] + CCCCCCOCn1cc[n+](COCCCCCC)c1.O=S(=O)([N-]S(=O)(=O)C(F)(F)F)C(F)(F)F | 0.811 ± 0.052 | 0.826 ± 0.053 | 0.839 ± 0.054 | 0.854 ± 0.055 | 0.867 ± 0.055 | 0.879 ± 0.056 | 0.89 ± 0.057 | 0.904 ± 0.057
C=CCCCCC [1-heptene] + CCCCCCOCn1cc[n+](C)c1.O=S(=O)([N-]S(=O)(=O)C(F)(F)F)C(F)(F)F | 6.16 ± 0.42 | 5.96 ± 0.41 | 5.79 ± 0.39 | 5.61 ± 0.38 | 5.44 ± 0.37 | 5.3 ± 0.36 | 5.18 ± 0.35 | 5.05 ± 0.34
CCCCO [butan-1-ol] + CCCCCCOCn1cc[n+](C)c1.O=S(=O)([N-]S(=O)(=O)C(F)(F)F)C(F)(F)F | – | – | 1.74 ± 0.12 | 1.58 ± 0.1 | 1.45 ± 0.1 | 1.34 ± 0.09 | 1.24 ± 0.08 | 1.15 ± 0.07
CCCCCC [hexane] + CCCCCCOCn1cc[n+](COCCCCCC)c1.O=S(=O)([N-]S(=O)(=O)C(F)(F)F)C(F)(F)F | 3.22 ± 0.22 | 3.13 ± 0.21 | 3.04 ± 0.21 | 2.97 ± 0.2 | 2.9 ± 0.2 | 2.83 ± 0.19 | 2.77 ± 0.19 | 2.72 ± 0.19
CCCOCCC [dipropyl ether] + CCCCCCOCn1cc[n+](C)c1.O=S(=O)([N-]S(=O)(=O)C(F)(F)F)C(F)(F)F | 2.92 ± 0.2 | 2.89 ± 0.2 | 2.87 ± 0.2 | 2.85 ± 0.19 | 2.83 ± 0.19 | 2.81 ± 0.19 | 2.79 ± 0.19 | 2.77 ± 0.19
C=CCCC [1-pentene] + CCCCCCOCn1cc[n+](C)c1.O=S(=O)([N-]S(=O)(=O)C(F)(F)F)C(F)(F)F | 3.96 ± 0.27 | 3.86 ± 0.26 | 3.77 ± 0.26 | 3.69 ± 0.25 | 3.61 ± 0.25 | 3.53 ± 0.24 | 3.47 ± 0.24 | 3.41 ± 0.23
C#CCCC [1-pentyne] + CCCCCCOCn1cc[n+](COCCCCCC)c1.O=S(=O)([N-]S(=O)(=O)C(F)(F)F)C(F)(F)F | 0.992 ± 0.062 | 0.997 ± 0.062 | 1 ± 0.063 | 1.01 ± 0.063 | 1.01 ± 0.063 | 1.02 ± 0.064 | 1.02 ± 0.064 | 1.02 ± 0.064
c1ccsc1 [thiophene] + CCCCCCOCn1cc[n+](C)c1.O=S(=O)([N-]S(=O)(=O)C(F)(F)F)C(F)(F)F | 0.743 ± 0.049 | 0.744 ± 0.049 | 0.744 ± 0.049 | 0.745 ± 0.049 | 0.746 ± 0.049 | 0.746 ± 0.049 | 0.747 ± 0.049 | 0.747 ± 0.049
O [water] + CCCCCCOCn1cc[n+](COCCCCCC)c1.O=S(=O)([N-]S(=O)(=O)C(F)(F)F)C(F)(F)F | 4.43 ± 0.3 | 3.8 ± 0.26 | 3.31 ± 0.23 | 2.93 ± 0.2 | 2.53 ± 0.17 | 2.24 ± 0.15 | 2.02 ± 0.14 | 1.83 ± 0.12
CC(C)=O [acetone] + CCCCCCOCn1cc[n+](COCCCCCC)c1.O=S(=O)([N-]S(=O)(=O)C(F)(F)F)C(F)(F)F | 0.262 ± 0.03 | 0.267 ± 0.03 | 0.272 ± 0.03 | 0.277 ± 0.03 | 0.281 ± 0.03 | 0.286 ± 0.031 | 0.29 ± 0.031 | 0.294 ± 0.031
CCc1ccccc1 [ethylbenzene] + CCCCCCOCn1cc[n+](COCCCCCC)c1.O=S(=O)([N-]S(=O)(=O)C(F)(F)F)C(F)(F)F | 0.967 ± 0.061 | 0.966 ± 0.061 | 0.965 ± 0.061 | 0.964 ± 0.061 | 0.963 ± 0.061 | 0.963 ± 0.061 | 0.962 ± 0.06 | –
C#CCCC [1-pentyne] + CCCCCCOCn1cc[n+](C)c1.O=S(=O)([N-]S(=O)(=O)C(F)(F)F)C(F)(F)F | 1.54 ± 0.1 | 1.56 ± 0.1 | 1.57 ± 0.1 | 1.58 ± 0.1 | 1.59 ± 0.11 | 1.59 ± 0.11 | 1.6 ± 0.11 | 1.61 ± 0.11
C1CCCCC1 [cyclohexane] + CCCCCCOCn1cc[n+](C)c1.O=S(=O)([N-]S(=O)(=O)C(F)(F)F)C(F)(F)F | 5.44 ± 0.37 | 5.14 ± 0.35 | 4.87 ± 0.33 | 4.63 ± 0.32 | 4.43 ± 0.3 | 4.24 ± 0.29 | 4.07 ± 0.28 | 3.91 ± 0.27
CCOCC [diethyl ether] + CCCCCCOCn1cc[n+](C)c1.O=S(=O)([N-]S(=O)(=O)C(F)(F)F)C(F)(F)F | 1.35 ± 0.09 | 1.37 ± 0.09 | 1.38 ± 0.09 | 1.4 ± 0.09 | 1.41 ± 0.09 | 1.43 ± 0.09 | 1.44 ± 0.09 | 1.45 ± 0.1
